Seven compounds from patent publication US20200360260A1, “TOPICAL COMPOSITION COMPRISING ANTIMICROBIAL LIPID” (Conopco, Inc., d/b/a UNILEVER, priority 2017, published 2020) can be followed below.

Type in all cases: cell-based
Holding throughout (conditions): for combined effect with AMLs: in combination with AMLs

One assay relates to M. furfur (CBS1878). The experiment in a line: ΣFIC assay against M. furfur. How it is done: (§1) Method: ΣFIC Assay Against M. Furfur, S. Aureus and P Acnes
(§2) M. furfur (CBS1878) was inoculated into Pityrosporum Broth (PB, solution A) and incubated in a shaking incubator at 32° C. for 2 days. The suspension containing the microbe was then diluted 10-times by PB and incubated again at 32° C. for another 2 days. The inoculum was further diluted by PB to get around 10^4 cells /ml. S. aureus (ATCC 12600) was inoculated into Tryptone Soya Broth (TSB, Oxoid: CM0129) and incubated in a shaking incubator at 37° C. for 1 day. The suspension containing the microbe was then diluted 10-times with TSB and incubated again at 37° C. for another 1 day. The inoculum was further diluted by TSB to get around 10^5 cells/ml.
(§3) Honokiol (Ex. Sigma) 50 mg/ml in DMSO (50,000 ppm); Magnolol (Ex. Sigma) 50 mg/ml in DMSO (50,000 ppm); Sapienic acid (Ex. Parchem, CAS# 17004-51-2) 100 mg/ml in 100% ethanol (100,000 ppm); D-Sphingosine (Ex. Sigma S7049) 5 mg/ml in 50% ethanol (5,000 ppm); D-erythro-Dihydrosphingosine (Ex. Sigma D3314) 5 mg/ml in 50% ethanol (5,000 ppm); Phytosphingosine (Ex. Evonik) 5 mg/m stock in 50% ethanol (5,000 ppm); Palmitoleic acid (Ex. Sigma 76169) 100 mg/ml in 100% ethanol (100,000 ppm).
(§4) The ΣFIC test was conducted based on the principle previously described in Hall M J, Middleton R F, & Westmacott D (1983), The fractional inhibitory concentration (FIC) index as a measure of synergy. Journal of Antimicrobial Chemotherapy 11(5):427-433. The procedure is as follows:
(§5) Twenty (20) μl of compound A (honokiol or magnolol as applicable to the test) and 20 μl of compound B (a selection of different AMLs as applicable to the test) were mixed in corresponding wells of a 96-well plate. An amount of 160 μl of microbial suspension was dispensed in each well and the broth medium as taken as a blank control for comparison of results. The total reaction volume in each well was 200 μl.
(§6) Thereafter the 96-well plates were incubated in an incubator. In accordance with the test protocols that were followed, M. furfur was incubated aerobically at 32° C. for 1 day, S. aureus was incubated aerobically at 37° C. for 1 day and P. acnes was incubated anaerobically at 37° C. for 4 days. Thereafter 20 μl alamar blue (0.1%) was dispensed in each well and the procedure of incubation (as abovementioned) was repeated. Finally, the change in colour of the indicator was monitored to check for visible signs of microbial growth or inhibition of the growth. If the colour changed to red it indicated growth (of microbes) and blue indicated no growth or inhibition of growth.
(§7) After all the observations were recorded and tabulated, the Fractional Inhibition Concentration (FIC) was calculated. The combination effect of inhibitory antimicrobials is widely explored using the concept of the Fractional Concentration (FC) and Fractional Inhibitory Concentration (FIC). This parameter is defined as follows:
(§8) ΣFIC=FIC (component 1)+FIC (component 2)
(§9) The final concentration of each ingredient in ppm (parts per million) after (10-fold dilution) was as follows. Each of these concentrations was tried out to determine the FIC value for (either of) honokiol or magnolol in combination with one of the AMLs.

Assay [1] deals with Propionibacterium acnes (ATCC 6919). The experiment in a line: ΣFIC assay against P. acnes. How it is done:
as §1
Propionibacterium acnes (ATCC 6919) was inoculated from freezer into liquid Reinforced Clostridial Medium (RCM, HepoBio: HB0316) for 3 days (anaerobic conditions) growth at 37° C. The suspension containing the microbe was then diluted 10-times with RCM and incubated again under 37° C. for another 3 days. The inoculum was further diluted by RCM to get around 10^4 cells/ml.
as §3, §4, §5, §6, §7, §8, §9

Another assay deals with S. aureus (ATCC 12600). The assay is described as follows: ΣFIC assay against S. aureus. Here is the method: as §1, §2, §3, §4, §5, §6, §7, §8, §9

As to `CCCCCCCCCCCCC/C=C/[C@@H](O)[C@@H](N)CO` [sphingosine, D-Sphingosine], the “The range of concentration of the ingredient (ppm) where the ΣFIC was less than 0.9: AML” value (shortened to “The range of concentration … AML”) with M. furfur (CBS1878) (in combination with honokiol) was 31.25 to 250 ppm; in the assay with M. furfur (CBS1878) (in combination with magnolol), 31.25 to 125 ppm; in assay [1] (in combination with honokiol), 0.31 to 1.25 ppm; in assay [1] (in combination with magnolol), 0.31 to 1.25 ppm; in the assay with S. aureus (ATCC 12600) (in combination with honokiol), 0.31 to 1.25 ppm; with S. aureus (ATCC 12600) (in combination with magnolol), 0.31 to 0.63 ppm. Moreover, the “The range of ratio of honokiol/AML (w/w) where ΣFIC was less than 0.9” value (“The range of ratio of honokiol/AML” below) was 1.25 to 40 w/w in the assay on M. furfur (CBS1878), 0.7 to 13 w/w in assay [1] and 0.8 to 25 w/w with S. aureus (ATCC 12600). In addition, the “The range of ratio of magnolol/AML (w/w) where ΣFIC was less than 0.9” value (“The range of ratio of magnolol/AML” below) with M. furfur (CBS1878) lay within 5 to 40 w/w; in assay [1] it was 1.5 to 13 w/w; with S. aureus (ATCC 12600), 1.5 to 25 w/w.
Consider `CCCCCCCCCCCCCC[C@@H](O)[C@@H](O)[C@@H](N)CO` [phytosphingosine, Phytosphingosine], for which the “The range of concentration … AML” value in the assay on M. furfur (CBS1878) (in combination with honokiol) was in the range of 15.63 to 62.5 ppm; in the assay with M. furfur (CBS1878) (in combination with magnolol) it was 3.91 to 62.5 ppm; in assay [1] (in combination with honokiol) it was 1.25 to 5.00 ppm; in assay [1] (in combination with magnolol), 0.63 to 5.00 ppm; with S. aureus (ATCC 12600) (in combination with honokiol), 0.63 to 5.00 ppm; with S. aureus (ATCC 12600) (in combination with magnolol), 0.63 to 2.50 ppm. The “The range of ratio of honokiol/AML” value in the assay on M. furfur (CBS1878) is reported as 10 to 80 w/w; in assay [1], 0.2 to 3.2 w/w; in the assay with S. aureus (ATCC 12600), 0.4 to 12.5 w/w. Further, the “The range of ratio of magnolol/AML” value with M. furfur (CBS1878) is reported as 10 to 320 w/w; in assay [1], 0.4 to 12.5 w/w; in the assay with S. aureus (ATCC 12600) it was 0.2 to 12.5 w/w.
`CCCCCCCCCCCCCCC[C@@H](O)[C@@H](N)CO` [dihydrosphingosine, D-erythro-Dihydrosphingosine]: the “The range of concentration … AML” value in the assay on M. furfur (CBS1878) (in combination with honokiol) fell in the range of 31.25 to 125 ppm; with M. furfur (CBS1878) (in combination with magnolol) it was 15.63 to 125 ppm; in assay [1] (in combination with honokiol), 0.63 to 2.50 ppm; in assay [1] (in combination with magnolol), 0.63 to 2.50 ppm; in the assay on S. aureus (ATCC 12600) (in combination with honokiol), 0.63 to 2.50 ppm; in the assay with S. aureus (ATCC 12600) (in combination with magnolol), 0.63 to 1.25 ppm. For the same compound, the “The range of ratio of honokiol/AML” value in the assay with M. furfur (CBS1878) is given as 5 to 40 w/w; in assay [1] it was 0.2 to 6.5 w/w; in the assay on S. aureus (ATCC 12600), 0.8 to 12.5 w/w. Also, the figures for the “The range of ratio of magnolol/AML” value (with M. furfur (CBS1878); in assay [1]; with S. aureus (ATCC 12600)) were 5 to 80 w/w, 0.7 to 6.5 w/w and 0.4 to 12.5 w/w, respectively.
For the compound `C=CCc1ccc(O)c(-c2cc(CC=C)ccc2O)c1` [magnolol, Magnolol], the “combined effect with AMLs” value (in the assay with M. furfur (CBS1878); in assay [1]; with S. aureus (ATCC 12600)) was “synergistic effect” in each case.
In the case of `C=CCc1ccc(O)c(-c2ccc(O)c(CC=C)c2)c1` [honokiol, Honokiol], the “combined effect with AMLs” value (in the assay with M. furfur (CBS1878); in assay [1]; with S. aureus (ATCC 12600)) was “synergistic effect” each time.
`CCCCCCCCC/C=C\CCCCC(=O)O` [sapienic acid, Sapienic acid]: the “The range of concentration … AML” value lay within 625 to 2500 ppm with M. furfur (CBS1878) (in combination with honokiol); 625 to 5000 ppm in the assay on M. furfur (CBS1878) (in combination with magnolol); 1.95 to 3.91 ppm in assay [1] (in combination with honokiol); 1.95 to 3.91 ppm in assay [1] (in combination with magnolol); 3.91 to 62.5 ppm in the assay on S. aureus (ATCC 12600) (in combination with honokiol); 1.95 to 31.25 ppm in the assay with S. aureus (ATCC 12600) (in combination with magnolol). Besides, the “The range of ratio of honokiol/AML” value was 0.25 to 1 w/w in the assay with M. furfur (CBS1878), 0.25 to 1 w/w in assay [1] and 0.008 to 2 w/w with S. aureus (ATCC 12600). The “The range of ratio of magnolol/AML” value fell in the range of 0.06 to 2 w/w with M. furfur (CBS1878), 0.25 to 1 w/w in assay [1] and 0.01 to 4 w/w in the assay with S. aureus (ATCC 12600).
Regarding `CCCCCC/C=C\CCCCCCCC(=O)O` [palmitoleic acid, Palmitoleic acid], the “The range of concentration … AML” value lay in the range of 625 to 5000 ppm in the assay with M. furfur (CBS1878) (in combination with honokiol); 625 to 5000 ppm with M. furfur (CBS1878) (in combination with magnolol); 1.95 to 7.81 ppm in assay [1] (in combination with honokiol); 1.95 to 7.81 ppm in assay [1] (in combination with magnolol); 3.91 to 62.5 ppm in the assay on S. aureus (ATCC 12600) (in combination with honokiol); 3.91 to 52.5 ppm with S. aureus (ATCC 12600) (in combination with magnolol). The “The range of ratio of honokiol/AML” value fell in the range of 0.06 to 2 w/w with M. furfur (CBS1878), 0.06 to 1 w/w in assay [1] and 0.008 to 2 w/w with S. aureus (ATCC 12600). Also, the “The range of ratio of magnolol/AML” value with M. furfur (CBS1878) was in the range of 0.03 to 2 w/w; in assay [1] it was 0.1 to 4 w/w; in the assay on S. aureus (ATCC 12600), 0.008 to 2 w/w.
